Results as given in patent publication US8754115B2, “Fungicidal pyrazoles” (E I du Pont de Nemours and Company, priority 2010, dated 2014).
Marks after values point to notes of the source that are not given here.

Tests used:
Format in all cases: in vivo
Botrytis cinerea = assay: Test A: preventive spray on tomato seedlings, visual disease rating (tomato Botrytis)
Source text: (§1) General protocol for preparing test suspensions for Tests A-F: the test compounds were first dissolved in acetone in an amount equal to 3% of the final volume and then suspended at the desired concentration (in ppm) in acetone and purified water (50/50 mix by volume) containing 250 ppm of the surfactant Trem® 014 (polyhydric alcohol esters). The resulting test suspensions were then used in Tests A-F. Spraying a 200 ppm test suspension to the point of run-off on the test plants was the equivalent of a rate of 800 g/ha. Unless otherwise indicated, the rating values indicate a 200 ppm test suspension was used. (An asterisk “*” next to the rating value indicates a 40 ppm test suspension was used.)
The test suspension was sprayed to the point of run-off on tomato seedlings. The following day the seedlings were inoculated with a spore suspension of Botrytis cinerea (the causal agent of tomato Botrytis) and incubated in saturated atmosphere at 20° C. for 48 h, and then moved to a growth chamber at 24° C. for 3 days, after which time visual disease ratings were made.
(§2) Results for Tests A-F are given in Table A. In the Table, a rating of 100 indicates 100% disease control and a rating of 0 indicates no disease control (relative to the controls). A dash (-) indicates no test results. An asterisk “*” next to the rating value indicates a 40 ppm test suspension was used.

Septoria nodorum = assay: Test C: preventive spray on wheat seedlings, visual disease rating (Septoria glume blotch); settings: asterisk: 40 ppm test suspension
Source text: as §1
The test suspension was sprayed to the point of run-off on wheat seedlings. The following day the seedlings were inoculated with a spore suspension of Septoria nodorum (the causal agent of Septoria glume blotch) and incubated in a saturated atmosphere at 24° C. for 48 h, and then moved to a growth chamber at 20° C. for 6 days, after which time visual disease ratings were made.
as §2

Septoria tritici = assay: Test D: preventive spray on wheat seedlings, visual disease rating (wheat leaf blotch)
Source text: as §1
The test suspension was sprayed to the point of run-off on wheat seedlings. The following day the seedlings were inoculated with a spore suspension of Septoria tritici (the causal agent of wheat leaf blotch) and incubated in saturated atmosphere at 24° C. for 48 h, and then moved to a growth chamber at 20° C. for 19 days, after which time visual disease ratings were made.
as §2

[1] = tested on: Puccinia recondite f. sp. tritici; assay: Test E2: preventive spray on wheat seedlings, visual disease rating (wheat leaf rust)
Source text: as §1
The test suspension was sprayed to the point of run-off on wheat seedlings. The following day the seedlings were inoculated with a spore suspension of Puccinia recondite f. sp. tritici (the causal agent of wheat leaf rust) and incubated in a saturated atmosphere at 20° C. for 24 h, and then moved to a growth chamber at 20° C. for 7 days, after which time visual disease ratings were made.
as §2

[2] = tested on: Blumeria graminis f. sp. tritici; assay: Test F: preventive spray on wheat seedlings, visual disease rating (wheat powdery mildew)
Source text: as §1
The test suspension was sprayed to the point of run-off on wheat seedlings. The following day the seedlings were inoculated with a spore dust of Blumeria graminis f. sp. tritici, (also known as Erysiphe graminis f. sp. tritici, the causal agent of wheat powdery mildew) and incubated in a growth chamber at 20° C. for 8 days, after which time visual disease ratings were made.
as §2

[3] = asterisk: 40 ppm test suspension
[4] = no asterisk: standard test suspension, not 40 ppm, 100 = 100% disease control, 0 = none
[5] = no asterisk: standard test suspension, not 40 ppm

Structure (SMILES)	Test A rating (% disease control) (Botrytis cinerea; [3])	Test C rating (% disease control) (Septoria nodorum)	Test D rating (% disease control) (Septoria tritici; [3])	Test E2 rating (% disease control) [1, 3]	Test F rating (% disease control) [2, 3]	Test A rating (% disease control) (Botrytis cinerea; [4]) [%]	Test D rating (% disease control) (Septoria tritici; [5]) [%]	Test E2 rating (% disease control) [1, 5] [%]	Test F rating (% disease control) [2, 5] [%]	further results
COc1nn(C)c(-c2c(F)cccc2Cl)c1C(O)c1ccc(F)cc1C (stereo not drawn) [compound 140]	100* %	99* %	100* %	99* %	100* %	–	–	–	–	–
COc1ccc(C(O)c2c(OC)nn(C)c2-c2c(F)cccc2Cl)c(F)c1 (stereo not drawn) [compound 143]	100* %	0* %	100* %	99* %	98* %	–	–	–	–	–
COc1ccc(C(O)c2c(OC)nn(C)c2-c2c(F)cccc2Cl)c(Cl)c1 (stereo not drawn) [compound 142]	100* %	60* %	100* %	100* %	100* %	–	–	–	–	–
COc1nn(C)c(-c2c(F)cc(F)cc2Cl)c1C(O)c1ccc(F)cc1Cl (stereo not drawn) [compound 141]	100* %	97* %	100* %	99* %	99* %	–	–	–	–	–
Cn1nc(OC(F)F)c(C(O)c2ccc(F)cc2Cl)c1-c1c(F)cccc1F (stereo not drawn) [compound 128]	43* %	0* %	100* %	85* %	56* %	–	–	–	–	–
Cc1cc(F)ccc1C(O)c1c(Br)nn(C)c1-c1c(F)cccc1Cl (stereo not drawn) [compound 149]	–	–	–	–	–	100	100	100	100	–
Cc1nn(C)c(-c2c(F)cc(C#N)cc2F)c1C(O)c1ccc(F)cc1F (stereo not drawn) [compound 112]	–	–	–	–	–	80	100	100	97	–
COc1nn(C)c(-c2c(F)cc(F)cc2F)c1C(O)c1c(F)cccc1Cl (stereo not drawn) [compound 155]	99* %	–	100* %	100* %	99* %	–	–	–	–	–
Cc1nn(C)c(-c2ccc(F)cc2I)c1C(O)c1ccc(F)cc1Cl (single isomer, unassigned) [compound 104]	0* %	–	98* %	97* %	72* %	–	–	–	–	–
COc1nn(C)c(-c2c(F)cccc2Cl)c1C(O)c1c(F)ccc(F)c1Cl (stereo not drawn) [compound 144]	78* %	0* %	100* %	100* %	98* %	–	–	–	–	–
Cn1nc(Cl)c(C(O)c2ccc(F)cc2Br)c1-c1c(F)cccc1F (stereo not drawn) [compound 136]	–	–	–	–	–	100	100	100	100	–
Cc1nn(C)c(-c2c(F)cccc2F)c1C(SC#N)c1ccc(F)cc1Cl (stereo not drawn) [Compound 111]	–	–	–	–	–	100	100	100	100	–
COc1nn(C)c(-c2c(F)cccc2F)c1C(O)c1ccc(F)cc1C (stereo not drawn) [Compound 157, 5-(2,6-difluorophenyl)-α-(4-fluoro-2-methylphenyl)-3-methoxy-1-methyl-1H-pyrazole-4-methanol]	–	–	–	–	–	–	–	–	–	pest or weed control at 40 ppm (Botrytis cinerea; Botrytis cinerea, 120 h, asterisk: 40 ppm test suspension): 100%; pest or weed control at 40 ppm (Septoria tritici; Zymoseptoria tritici, 504 h, asterisk: 40 ppm test suspension): 100%; pest or weed control at 40 ppm ([1]; 192 h, asterisk: 40 ppm test suspension): 100%; pest or weed control at 40 ppm ([2]; Blumeria graminis, 192 h, asterisk: 40 ppm test suspension): 100%
Cc1cc(F)ccc1C(O)c1c(C)nn(C)c1-c1c(F)cccc1F (stereo not drawn) [compound 129]	–	–	–	–	–	100	100	99	100	–
Cc1nn(C)c(-c2c(F)cccc2F)c1C(OCC#N)c1ccc(F)cc1Cl (stereo not drawn) [Compound 107]	9* %	–	99* %	99* %	99* %	–	–	–	–	–
Cn1nc(Br)c(C(O)c2ccc(F)cc2Cl)c1-c1c(F)cccc1Cl (stereo not drawn) [compound 148]	–	–	–	–	–	100	100	100	99	–
Cc1nn(C)c(-n2ccnc2Cl)c1C(O)c1ccc(F)cc1F (stereo not drawn) [compound 151]	–	–	–	–	–	16	0	99	43	–
C=CCOC(c1ccc(F)cc1Cl)c1c(C)nn(C)c1-c1c(F)cccc1F (stereo not drawn) [Compound 109]	0* %	–	100* %	98* %	97* %	–	–	–	–	–
Cn1nc(Br)c(C(O)c2ccc(F)cc2Br)c1-c1c(F)cccc1Cl (stereo not drawn) [compound 132]	–	–	100* %	99* %	–	0	–	–	100	–
COc1nn(C)c(-c2c(F)cccc2Cl)c1C(O)c1c(F)ccc(F)c1F (stereo not drawn) [compound 145]	26* %	0* %	35* %	82* %	73* %	–	–	–	–	–
Cc1nn(C)c(-c2c(F)cccc2F)c1C(SC#N)c1c(F)cc(F)cc1F (stereo not drawn) [Compound 116]	0* %	–	78* %	9* %	0* %	–	–	–	–	–
COc1nn(C)c(-c2c(F)cc(F)cc2F)c1C(O)c1ccccc1F (stereo not drawn) [compound 154]	–	–	–	–	–	100	100	100	100	–
COc1nn(C)c(-c2c(F)cc(F)cc2F)c1C(O)c1ccc(F)cc1Cl (stereo not drawn) [compound 152]	100* %	–	100* %	100* %	100* %	–	–	–	–	–
